{"source": "patent US11813239B2", "about": "“Compositions and methods for improving cardiac structure and/or function” (Wisconsin Alumni Research Foundation, priority 2020, dated 2023)", "key": {"[1]": {"system": "postnatal (P7) mouse heart following myocardial infarction", "test": "Echocardiography after myocardial infarction in P7 juvenile mice", "settings": "for % EF (Ejection Fraction) / % FS (Fractional Shortening) / LV Mass (Left Ventricular Mass, Anatomical Weight) / LV Vol; d (Left Ventricular Volume; diastole) / LV Vol; s (Left Ventricular Volume; systole) / LVAWD (Left Ventricle Anterior Wall Thickness Diastole) / LVAWS (Left Ventricle Anterior Wall Thickness Systole) / LVIDD (Left Ventricle Internal Diameter Diastole) / LVIDS (Left Ventricle Internal Diameter Systole) / LVPWD (Left Ventricle Posterior Wall Thickness Diastole) / LVPWS (Left Ventricle Posterior Wall Thickness Systole): Atpenin A5 100 μg/kg daily, mean ± SE", "method": "(§1) Neonatal mice at postnatal day 1 (P1) or day 7 (P7) were used for myocardial infarction (MI) surgery. Neonatal mice were subjected to MI surgeries as previously described. Briefly, neonates were anesthetized by hypothermia on ice. Lateral thoracotomy at the fourth intercostal space was performed by blunt dissection of the intercostal muscles after skin incision. A C-1 tapered needle attached to a 6-0 prolene suture (Ethicon Inc., Bridgewater, N.J.) was passed through the mid-ventricle below the left anterior descending coronary artery (LAD) and tied off to induce MI. The prolene suture was used to suture the ribs together and seal the chest wall incisions, and the skin was closed using adhesive glue (3M). The mice then were warmed on a heating pad until recovery. Sham-operated mice underwent the same procedure including hypothermic anesthesia, but not LAD ligation.\n(§2) Neonatal mice were weighed and injected daily with either saline, 100 mg/kg dimethyl succinate (Sigma), 100 mg/kg dimethyl malonate (Sigma), or 100 μg/kg Atpenin A5 (Enzo Life Sciences). Dimethyl succinate and dimethyl malonate were dissolved in saline. Stock solution of Atpenin A5 at 0.1 mg/ml was initially prepared by dissolving in DMSO (Sigma) and then further diluted with saline before injection. Saline was used as a vehicle control for all experiments.\nTransthoracic echocardiography was performed by using a Visual Sonics 770 ultrasonograph with a 25-MHz transducer (Visual Sonics, Toronto) as described previously^19. Mice were lightly anesthetized with 1% isoflurane and maintained on a heated platform. Two-dimensionally guided M-mode images from a parasternal long axis (PLAX) of the left ventricle (LV) were acquired at the tip of the papillary muscles. Wall thickness and chamber diameters were measured in both diastole and systole. Fractional shortening was calculated as (LVDd−LVDs)/LVDd×100, where LVDd is LV diameter in diastole and LVDs is LV diameter in systole. Ejection fraction was calculated as [(7.0/(2.4+LVDd)(LVDd)^3−(7.0/(2.4+LVDs)(LVDs)^3/(7.0/(2.4+LVDd)(LVDd)^3×100 and LV mass was calculated by using the formula [1.05×((Posterior Walldiastole+Anterior Walldiastole+LVDd)^3−(LVDd)^3)]. All parameters were measured over at least three consecutive cycles.\nWe injected dimethyl malonate (100 mg/kg, daily) in neonatal mice directly after birth for 2 weeks with an MI performed once the mice reached P7. We then analyzed the hearts following injury to determine whether malonate results in prolongation of the neonatal regenerative window (FIG. 10A)."}, "[2]": {"system": "cardiomyocytes", "test": "Immunostaining (pH3, Aurora B), WGA and trichrome staining after MI in P7 mice", "settings": "vs controls", "from_the_text": "We then analyzed the hearts following injury to determine whether malonate results in prolongation of the neonatal regenerative window (FIG. 5A). To examine whether malonate stimulates cardiomyocyte proliferation, we performed MI in 7-day-old mice and analyzed their hearts at 7 days post-MI by immunostaining for markers of proliferation.\nas §1, §2\nHearts were harvested and fixed in 4% paraformaldehyde (PFA) in PBS solution overnight at 4° C., processed for paraffin embedding, and sectioned in intervals. Masson's trichrome staining was performed according to the manufacture's protocol (Newcomer Supply, Middleton, WI). Scar size measurements were quantified from at least 3 sections of the heart from ligature to apex. ImageJ was used to quantify the fibrotic scar, and the average scar area for each heart was plotted.\nWe injected dimethyl malonate (100 mg/kg, daily) in neonatal mice directly after birth for 2 weeks with an MI performed once the mice reached P7."}, "[3]": {"target": "SDH (Homo sapiens, UniProt O14521+P21912+Q99643)", "sequence (P31040 43-664 partner)": "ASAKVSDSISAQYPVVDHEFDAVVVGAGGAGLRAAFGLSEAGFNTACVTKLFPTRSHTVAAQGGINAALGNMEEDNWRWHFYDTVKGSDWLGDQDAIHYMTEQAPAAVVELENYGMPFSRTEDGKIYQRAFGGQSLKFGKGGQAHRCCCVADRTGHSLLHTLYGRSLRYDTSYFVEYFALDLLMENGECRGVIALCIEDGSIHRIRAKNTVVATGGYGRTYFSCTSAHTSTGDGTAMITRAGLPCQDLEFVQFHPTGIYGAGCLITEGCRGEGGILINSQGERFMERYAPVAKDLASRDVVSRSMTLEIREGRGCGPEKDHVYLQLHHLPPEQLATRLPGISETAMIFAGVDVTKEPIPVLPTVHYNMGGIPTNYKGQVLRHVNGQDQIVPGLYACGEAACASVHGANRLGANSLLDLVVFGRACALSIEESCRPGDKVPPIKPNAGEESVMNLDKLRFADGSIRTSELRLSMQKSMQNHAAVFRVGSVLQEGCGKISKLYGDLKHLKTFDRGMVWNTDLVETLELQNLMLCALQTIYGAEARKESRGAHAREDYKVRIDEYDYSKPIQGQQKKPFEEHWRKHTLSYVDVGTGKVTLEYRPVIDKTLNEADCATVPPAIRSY", "sequence (P21912 29-280)": "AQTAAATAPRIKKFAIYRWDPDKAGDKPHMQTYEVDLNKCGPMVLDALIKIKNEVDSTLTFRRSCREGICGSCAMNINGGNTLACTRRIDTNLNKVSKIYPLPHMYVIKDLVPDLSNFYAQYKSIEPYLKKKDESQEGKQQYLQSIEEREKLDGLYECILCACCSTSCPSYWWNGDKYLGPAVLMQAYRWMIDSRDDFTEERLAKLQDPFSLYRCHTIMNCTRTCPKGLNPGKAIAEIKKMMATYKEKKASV", "sequence (Q99643 30-169)": "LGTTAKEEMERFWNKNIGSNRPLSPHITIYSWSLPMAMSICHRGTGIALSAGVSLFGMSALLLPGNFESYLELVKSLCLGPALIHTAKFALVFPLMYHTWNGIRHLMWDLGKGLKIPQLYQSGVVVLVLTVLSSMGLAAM", "sequence (O14521 57-159)": "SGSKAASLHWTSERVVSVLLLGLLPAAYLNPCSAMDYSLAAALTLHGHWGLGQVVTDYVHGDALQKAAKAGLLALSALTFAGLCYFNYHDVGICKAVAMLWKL", "settings": "literature reference 21 (Miyadera et al. 2003); cited from earlier work"}, "[4]": {"settings": "MI at P7 (n = 8), echo 21 days post-MI (P7D21)"}, "[5]": {"settings": "sham at P7 (SH, n = 6), echo at day 21 (P7D21)"}, "[6]": {"settings": "MI at P7, Atpenin A5 100 μg/kg daily, 7 days post-MI"}, "[7]": {"settings": "MI at P7, Atpenin A5 100 μg/kg daily, 21 days post-MI"}}, "data": [{"smiles": "COC1=C(OC)C(=O)C(CCCCCCCCCC[P+](c2ccccc2)(c2ccccc2)c2ccccc2)=C(C)C1=O", "note": "[MitoQ]", "values": [{"measurement": "cardiac function by echocardiography (EF and FS)", "setting": "[1]; MI at P7, MitoQ 10 mg/kg intraperitoneally daily for 2 weeks after birth, vs controls", "value": "no improvement in cardiac function"}, {"measurement": "cardiomyocyte mitosis (pH3 immunostaining)", "setting": "[2]; MI at P7, MitoQ 10 mg/kg intraperitoneally daily for 2 weeks after birth, 7 days post-MI", "value": "significant increase in cardiomyocyte mitosis"}]}, {"smiles": "COc1[nH]c(=O)c(C(=O)[C@@H](C)C[C@H](C)[C@@H](Cl)CCl)c(O)c1OC", "note": "[Atpenin A5]", "values": [{"measurement": "inhibition of SDH", "setting": "[3]", "value": "potent inhibitor of SDH"}, {"measurement": "% EF (Ejection Fraction)", "setting": "[1]; [4]", "value": "49.676 ± 2.072", "unit": "%"}, {"measurement": "% FS (Fractional Shortening)", "setting": "[1]; [4]", "value": "24.642 ± 1.227", "unit": "%"}, {"measurement": "LV Mass (Left Ventricular Mass, Anatomical Weight)", "setting": "[1]; [4]", "value": "54.203 ± 7.978", "unit": "mg"}, {"measurement": "LV Vol; d (Left Ventricular Volume; diastole)", "setting": "[1]; [4]", "value": "50.033 ± 6.416", "unit": "µL"}, {"measurement": "LV Vol; s (Left Ventricular Volume; systole)", "setting": "[1]; [4]", "value": "25.290 ± 3.427", "unit": "µL"}, {"measurement": "LVAWD (Left Ventricle Anterior Wall Thickness Diastole)", "setting": "[1]; [4]", "value": "0.525 ± 0.023", "unit": "mm"}, {"measurement": "LVAWS (Left Ventricle Anterior Wall Thickness Systole)", "setting": "[1]; [4]", "value": "0.644 ± 0.032", "unit": "mm"}, {"measurement": "LVIDD (Left Ventricle Internal Diameter Diastole)", "setting": "[1]; [4]", "value": "3.438 ± 0.167", "unit": "mm"}, {"measurement": "LVIDS (Left Ventricle Internal Diameter Systole)", "setting": "[1]; [4]", "value": "2.592 ± 0.132", "unit": "mm"}, {"measurement": "LVPWD (Left Ventricle Posterior Wall Thickness Diastole)", "setting": "[1]; [4]", "value": "0.521 ± 0.025", "unit": "mm"}, {"measurement": "LVPWS (Left Ventricle Posterior Wall Thickness Systole)", "setting": "[1]; [4]", "value": "0.643 ± 0.027", "unit": "mm"}, {"measurement": "cardiac function by echocardiography", "setting": "[1]; MI at P7, Atpenin A5 100 μg/kg daily, 3 weeks post-MI", "value": "restoration of cardiac function"}, {"measurement": "% EF (Ejection Fraction)", "setting": "[1]; [5]", "value": "51.652 ± 3.984", "unit": "%"}, {"measurement": "% FS (Fractional Shortening)", "setting": "[1]; [5]", "value": "25.773 ± 2.586", "unit": "%"}, {"measurement": "LV Mass (Left Ventricular Mass, Anatomical Weight)", "setting": "[1]; [5]", "value": "42.822 ± 4.210", "unit": "mg"}, {"measurement": "LV Vol; d (Left Ventricular Volume; diastole)", "setting": "[1]; [5]", "value": "39.614 ± 7.039", "unit": "µL"}, {"measurement": "LV Vol; s (Left Ventricular Volume; systole)", "setting": "[1]; [5]", "value": "19.979 ± 4.374", "unit": "µL"}, {"measurement": "LVAWD (Left Ventricle Anterior Wall Thickness Diastole)", "setting": "[1]; [5]", "value": "0.493 ± 0.042", "unit": "mm"}, {"measurement": "LVAWS (Left Ventricle Anterior Wall Thickness Systole)", "setting": "[1]; [5]", "value": "0.615 ± 0.041", "unit": "mm"}, {"measurement": "LVIDD (Left Ventricle Internal Diameter Diastole)", "setting": "[1]; [5]", "value": "3.100 ± 0.229", "unit": "mm"}, {"measurement": "LVIDS (Left Ventricle Internal Diameter Systole)", "setting": "[1]; [5]", "value": "2.319 ± 0.221", "unit": "mm"}, {"measurement": "LVPWD (Left Ventricle Posterior Wall Thickness Diastole)", "setting": "[1]; [5]", "value": "0.536 ± 0.027", "unit": "mm"}, {"measurement": "LVPWS (Left Ventricle Posterior Wall Thickness Systole)", "setting": "[1]; [5]", "value": "0.648 ± 0.030", "unit": "mm"}, {"measurement": "percentage of cardiomyocytes undergoing cytokinesis (Aurora B staining)", "setting": "[2]; [6]", "value": "significant increase"}, {"measurement": "percentage of cardiomyocytes undergoing mitosis (pH3 staining)", "setting": "[2]; [6]", "value": "significant increase"}, {"measurement": "myocardial regeneration (trichrome staining)", "setting": "[2]; [7]", "value": "myocardial thickness at the infarct zone"}, {"measurement": "scar size (trichrome staining, ImageJ)", "setting": "[2]; [7]", "value": "significant reduction in scar size"}]}]}
